Laboratory results taken from publication PMC4434572, “Identification of novel drugs to target dormant micrometastases” (BMC Cancer, 2015).
“Also recorded” adds a separate entry of the source. Where two headings read alike, the source gives them in different places.

Assays:
J82 (bladder) = assay: Proliferation EC50 on SISgel vs monolayer; assay type: cell-based; conditions: n = 6-8
Source text: (§1) The libraries were obtained from the NCI (Diversity Library I) comprised of 2,918 compounds and a 10,000 compound diversity library from ChemBridge, Inc. (DiverSet-EXP). The NCI library is no longer available in the form used here, but how it was constructed is described (http://dtp.nci.nih.gov/branches/dscb/diversity_explanation.html). The ChemBridge library is a subset (Set Code NM1024) of the full 50,000 compound library (http://www.chembridge.com/screening_libraries/diversity_libraries/). Compounds were diluted to 100 μM before use. SISgel was prepared as described previously from powdered porcine small intestine submucosa obtained from Cook Biotech (W. Lafayette, IN). It is a natural product that is used extensively in tissue engineering as a bioscaffold. J82 bladder cancer cells and other cell lines were obtained from the ATCC (Bethesda, MD). The basic principle is that cells grown on any ECM are, in general, expected to show higher resistance to anticancer compounds than when grown on plastic. Therefore, compounds that show a higher activity toward cancer cells on a normal ECM than on a plastic surface would be candidates to target suppressed, micrometastatic cells. Efficacy in vitro was assessed by plating 30,000 cells in 50 μL of high glucose DMEM with penicillin-streptomycin and 10 % fetal calf serum on SISgel in a 96-well plate containing 50 μL of gelled SISgel per well. Cells were allowed to attach and assume the SISgel phenotype for 48 h. A matching plate without SISgel was prepared 24 h later by pipetting 3,000 cells in 100 μL of high glucose DMEM with penicillin-streptomycin and 10 % fetal calf serum into each well of 96 well plate. The cells were allowed to attach and grow for 24 h. These numbers of cells gave approximately equal replication rates at the time drug was added for cells grown on the plastic surface or SISgel as determined by the fraction of S-phase cells identified by flow cytometry. The cells were exposed to drug in fresh medium for 48 h, at which time the cell number was determined using the CFDA-AM cellular esterase proliferation assay (cat. #C1354, Life Technologies). For screening the results are reported as the ratio of cell count of cells on the plastic surface to the cell count on SISgel. An initial difference of 1.5 fold identified potential hits. All potential hits were confirmed in triplicate. Those compounds that replicated were confirmed by a full dose–response study yielding an EC50 using five wells per drug concentration. Data were analyzed using nonlinear regression to a sigmoid curve with Prism 4 (GraphPad Software, Inc., LaJolla, CA). Potential hits that were confirmed by dose–response using J82 were also tested with MDA-MB-435 breast cancer, PC-3 metastatic prostate cancer, Capan1 pancreatic cancer and the J82 bladder cancer cell lines.

Capan-1 (pancreatic) = assay: Proliferation EC50 on SISgel vs monolayer; assay type: cell-based; conditions: Homo sapiens, n = 6-8
Source text: as §1

MDA-MB-435-GFP cells = assay: Flank xenograft model of ECM-suppressed cells co-injected with SISgel; assay type: in vivo, nu/nu mice; conditions: 75 mg/kg twice weekly; 6 flanks
Method: The efficacy of DT320 was assessed using a flank xenograft model of ECM-suppressed cancer cells that we developed, as well as an orthotopic model of “triple-negative” breast cancer. All animal protocols were reviewed and approved by the OUHSC Institutional Animal Care and Use Committee according to criteria established by the NIH Office of Laboratory Animal Welfare, and animals were housed 5 per cage with enrichment (tubes) and wood chips in the AALAC-accredited OUHSC Animal Facility with a 12 h light/dark cycle. Animals had access to water and food ad libatum. Animals were monitored daily by trained facility personnel. In the flank model, GFP-labeled cells were co-injected with SISgel, which produces a suppressed, normalized phenotype that persists after the SISgel is resorbed, but which can re-emerge into active tumor growth after 30–60 days. Animals were all female nu/nu mice (NCI National Laboratory Frederick/Charles River animal production program). An optimized number of 5 × 10^5 GFP-labeled MDA-MB-435 cells in 100 μL DMEM medium, without additives, were mixed with 100 μL of SISgel and were kept on ice until injection to prevent polymerization of the SISgel. […] The cells injected into the flanks remained as a non-growing spot, as assessed by fluorometry of the spots and the lack of mitoses seen in tissue sections, for about 3–5 weeks before some began resuming malignant growth. […]

MDA-MB-435 cells = assay: Western blot of protein levels after treatment; assay type: cell-based
Method: Protein content of selected proteins identified by reversed phase protein array (see supplementary materials) as being involved mechanistically in the response to DT320 was assayed by Western blot as described using the following antibodies. The following antibodies were purchased from Cell Signaling Technology (Beverly, MA) and diluted per manufacturer’s directions: Rabbit mAb Anti-Phospho-AKT (Ser473) (D9E) XP® #4060, Rabbit mAb anti-p38 MAPK (D13E1) XP® #8690, Mouse mAb anti-Phospho-SAPK/JNK (Thr183/Tyr185) (G9) #9255, Rabbit mAb anti-Phospho-CHK1 (Ser345) (133D3) #2348, Rabbit polyclonal anti-Phospho-CHK2 (Thr68) Antibody #2661, Rabbit polyclonal anti-BAX Antibody #2772, Rabbit polyclonal anti-Vinculin Antibody #4650, Mouse mAb anti-Cyclin D1 (DCS6) #2926, Rabbit mAb anti-Cyclin E2 (D52F9) b #3741, […], Mouse mAb anti-Cyclin B1 (V152) #4135, Rabbit mAb anti-cleaved PARP (Asp214) (D64E10) XP® #5625, Rabbit mAb anti-cleaved Caspase-3 (Asp175) (5A1E) #9654, Rabbit mAb anti-Nanog (D73G4), #4903; Rabbit mAb anti-Oct4 (C52G3) #2890; and Rabbit mAb anti-Sox2 (D6D9) #3579. Specificity of each antibody is illustrated on the company’s web page. For negative controls, pre-immune rabbit IgG was used. No signal was detected in the control IgG samples. No intensities or contrast were modified, but the appropriate bands were cut out using PhotoShop to prepare composite gel images.
To elucidate the mechanism of DT310 and DT320, cell cycle analysis and Western blotting was performed. The proteins for Western blot were selected from preliminary results using reverse phase protein array (RPPA) for DT320 and DT321 treated MDA-MB-435 and T24 cells. […] Proteins within these clusters showing the largest differences in protein expression and that were related to known anticancer drug action were confirmed by Western blot. Docetaxel was used as a positive control because it is known to induce a cell cycle arrest and apoptosis signature.

4T1 Luc2-GFP cells = assay: Orthotopic 4T1 syngeneic model of triple-negative breast cancer with natural lung metastasis; assay type: in vivo, BALB/c mice
Method: 4T1 Luc2-GFP cells (PerkinElmer, Waltham, MA) were cultured in DMEM high glucose media with 2 mM pyruvate, 2 mM glutamine, 2 % Pen/Strep and 10 % Cosmic Calf Serum (Mediatech, Manassas, VA). To prepare cells for injection they were removed from flasks, counted using the TC10 counting system (BioRad, Hercules, CA) and checked for viability. Cells were then washed with PBS, pelleted and taken up at a concentration of 75,000 cells/ml; 100 μl of cell suspension (7,500 cells) was injected subcutaneously (bevel side up) into mammary fat pad #4 of 8 weeks old female BALB/c mice (NCI National Laboratory Frederick/Charles River animal production program). All animals were weighed and tumors were measured using calipers three times weekly. Beginning one week after implantation, which is when micrometastatic cells begin to arrive in the lungs, animals were treated three times per week with intraperitoneal DT310 or DT320 at their NOAEL dose of 75 mg/kg three times week dissolved in saline or by osmotic pump. The osmotic pumps (Alzet #2004) delivered an NOAEL dose of 23.4 and 26.7 μg/h of DT310 and DT320, respectively, for 4 weeks and were implanted as directed subcutaneously posterior to scapulae. Docetaxel was delivered once weekly intraperitoneally at its MTD of 15 mg/kg and doxorubicin delivered once weekly at its MTD of 1 mg/kg in 5 % N-Methyl-2-pyrrolidone, 5 % Solutol HS, and 90 % saline. GFP positive cells were imaged with excitation of GFP emission using a Leica Model Z16 APO fluorescence microscope equipped for a wide field, a large depth of field and 0.57–9.2X zoom capability. GFP-positive objects were counted and scored as to whether they were […], clumps of less than ten cells without a visible vasculature, as determined by co-injection of tetramethylrhodamine labeled dextran (2 million MW).

in vivo = conditions: BALB/c, mouse, ip
[1] = test system: protein tyrosine phosphatase (PTP); design: method as in PMID 9575179; conditions: cited from earlier work
[2] = test system: cancer cells on SISgel or plastic; assay: Activity of leads and analogs on cancer cells grown on plastic vs SISgel (cell line not stated); assay type: cell-based
Method in brief: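 Cells on SISgel (30,000/well, 48 h attachment) or plastic (3,000/well, 24 h) were exposed to compound (diluted to 100 μM) for 48 h in high-glucose DMEM with 10 % FCS. Cell number quantified by CFDA-AM esterase assay; results given as plastic:SISgel cell-count ratio, hits confirmed in triplicate, curves fitted sigmoidally.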

## N.N.[Cl][Pt][Cl] [cisplatin, reference compound]
J82 (bladder); J82 monolayer, read-out: EC50 Monolayer
  EC50: 102 ± 10.2 µM
J82 (bladder); J82 on SISgel, read-out: EC50 SISgel
  EC50: > 300 µM

## Nc1ccn([C@@H]2O[C@H](CO)[C@@H](O)C2(F)F)c(=O)n1 [gemcitabine, reference compound]
Capan-1 (pancreatic); Capan-1 monolayer, read-out: EC50 Monolayer
  EC50: 78.2 ± 9.8 µM
Capan-1 (pancreatic); Capan-1 on SISgel, read-out: EC50 SISgel
  EC50: 83.1 ± 10.7 µM
MDA-MB-435-GFP cells
  response of suppressed flank xenografts: no response in all six flank xenografts; also recorded: remained present

## CC(=O)O[C@@]12CO[C@@H]1C[C@H](O)[C@@]1(C)C(=O)[C@H](O)C3=C(C)[C@@H](OC(=O)[C@H](O)[C@@H](NC(=O)OC(C)(C)C)c4ccccc4)C[C@@](O)([C@@H](OC(=O)c4ccccc4)[C@H]21)C3(C)C [docetaxel]
MDA-MB-435 cells
  CHK1 expression: neither of the DT compounds nor docetaxel induced CHK1
  Cyclin A1 (CCNA1) expression: sharply down-regulate
  Cyclin D1 (CCND1) expression: down-regulated
  cyclin B1 (CCNB1) expression: down-regulated
  pSAP/JNK expression: not
MDA-MB-435 cells; 24 h
  pAKT expression: did not
4T1 Luc2-GFP cells; administered i.p. at MTD
  primary tumor growth: little effect
4T1 Luc2-GFP cells; i.p. or osmotic pump
  number of large multicellular micrometastases and vascularized macrometastases to the lung: only minimal effects
In vivo
  MTD: 15 mg/kg

## Cc1ccc(C(=O)Nc2ccc(S(=O)(=O)O)c3cc(S(=O)(=O)O)cc(S(=O)(=O)O)c23)cc1NC(=O)c1cccc(NC(=O)Nc2cccc(C(=O)Nc3cc(C(=O)Nc4ccc(S(=O)(=O)O)c5cc(S(=O)(=O)O)cc(S(=O)(=O)O)c45)ccc3C)c2)c1 [Suramin, reference compound]
[1]
  PTP inhibition: potent
[2]; ratio IC50-p/IC50-S
  SR: 1.4
[2]; read-out: IC50-S
  IC50: 226 µM
[2]; read-out: IC50-p
  IC50: 321 µM
